ChEMBL document CHEMBL5046301, “pH-Responsive Antimicrobial Peptide with Selective Killing Activity for Bacterial Abscess Therapy” (J Med Chem, 2022)
Active and inactive are the calls of the source. No cut-off for these calls is given here.

What was measured:
[1] = Ratio of MHC for hemolytic activity against human RBC assessed as hemoglobin release at pH 6.5 to MHC for hemolytic activity against human RBC assessed as hemoglobin release at pH 7.4; format: toxicity, cell-based, Erythrocyte; settings: human red blood cells (RBC)
[2] = Hemolytic activity against human RBC assessed as hemoglobin release at pH 6.5 incubated for 1 hrs; format: toxicity, cell-based; settings: erythrocyte, pH 6.5, 1 h
[3] = Cytotoxicity against mouse RAW264.7 cells assessed as inhibition of cell growth at pH 6.5 measured after 24 hrs by MTT assay; format: toxicity, cell-based
Pseudomonas aeruginosa [4] = assay: Antimicrobial activity against Pseudomonas aeruginosa ATCC 27853 assessed as reduction in bacterial growth at pH 7.4 in presence of 50% serum; format: functional, organism-based
Pseudomonas aeruginosa [5] = assay: Antimicrobial activity against Pseudomonas aeruginosa ATCC 27853 assessed as reduction in bacterial growth at pH 7.4 in presence of CaCl2; format: functional, organism-based
Pseudomonas aeruginosa [6] = assay: Antimicrobial activity against Pseudomonas aeruginosa ATCC 27853 assessed as reduction in bacterial growth at pH 6.5 in presence of NaCl; format: functional
[7] = Hemolytic activity in human RBC assessed as hemoglobin release at pH 7.4 incubated for 1 hr; format: toxicity, cell-based; settings: erythrocyte, pH 7.4, 1 h
[8] = Cytotoxicity against mouse RAW264.7 cells assessed as inhibition of cell growth at pH 7.4 measured after 24 hrs by MTT assay; format: toxicity, cell-based
Pseudomonas aeruginosa [9] = assay: Antimicrobial activity against Pseudomonas aeruginosa ATCC 27853 assessed as reduction in bacterial growth at pH 6.5 in presence of 50% serum; format: functional, organism-based
Pseudomonas aeruginosa [10] = assay: Antimicrobial activity against Pseudomonas aeruginosa ATCC 27853 assessed as reduction in bacterial growth at pH 7.4 in presence of NaCl; format: functional, organism-based
[11] = tested on: Staphylococcus epidermidis; assay: Antibacterial activity against Staphylococcus epidermidis ATCC 12228 assessed as inhibition of bacterial growth at pH 7.4 incubated for 24 hrs by NCCLS protocol based method; format: functional
Staphylococcus aureus [12] = assay: Antibacterial activity against Staphylococcus aureus ATCC 29213 assessed as inhibition of bacterial growth at pH 6.5 incubated for 24 hrs by NCCLS protocol based method; format: functional
Lipopolysaccharide (LPS) [13] = assay: Displacement of BODIPY-TR-cadaverin from Pseudomonas aeruginosa ATCC 27316 Lipopolysaccharide at 1 to 64 uM at pH 6.5 incubated for 1 hr by fluorescence based analysis; settings: dose 1-64 µM
Pseudomonas aeruginosa [14] = assay: Antibacterial activity against Pseudomonas aeruginosa ATCC 27853 assessed as inhibition of bacterial growth at pH 6.5 incubated for 24 hrs by NCCLS protocol based method; format: functional
[15] = tested on: Staphylococcus epidermidis; assay: Antibacterial activity against Staphylococcus epidermidis ATCC 12228 assessed as inhibition of bacterial growth at pH 6.5 incubated for 24 hrs by NCCLS protocol based method; format: functional
Escherichia coli [16] = assay: Antibacterial activity against Escherichia coli ATCC 25922 assessed as inhibition of bacterial growth at pH 6.5 incubated for 24 hrs by NCCLS protocol based method; format: functional
Cell membrane [17] = assay: Induction of cytoplasmic membrane depolarization in Pseudomonas aeruginosa ATCC 27853 assessed as increase in fluorescence intensity at acidic and alkaline pH by DiSC3-5 dye based fluorescence assay; format: subcellular; settings: TDE = time-dependent effect
Staphylococcus aureus [18] = assay: Antibacterial activity against Staphylococcus aureus ATCC 25923 assessed as inhibition of bacterial growth at pH 6.5 incubated for 24 hrs by NCCLS protocol based method; format: functional
Pseudomonas aeruginosa [19] = assay: Antibacterial activity against Pseudomonas aeruginosa ATCC 27853 assessed as inhibition of bacterial growth at pH 7.4 incubated for 24 hrs by NCCLS protocol based method; format: functional
Lipopolysaccharide (LPS) [20] = assay: Displacement of BODIPY-TR-cadaverin from Pseudomonas aeruginosa ATCC 27316 Lipopolysaccharide at 1 to 64 uM at pH 7.4 incubated for 1 hr by fluorescence based analysis; settings: dose 1-64 µM
Salmonella typhimurium [21] = assay: Antibacterial activity against Salmonella enterica subsp. enterica serovar Typhimurium C77-31 assessed as inhibition of bacterial growth at pH 7.4 incubated for 24 hrs by NCCLS protocol based method; format: functional
Salmonella typhimurium [22] = assay: Antibacterial activity against Salmonella enterica subsp. enterica serovar Typhimurium C77-31 assessed as inhibition of bacterial growth at pH 6.5 incubated for 24 hrs by NCCLS protocol based method; format: functional
Escherichia coli [23] = assay: Antibacterial activity against Escherichia coli ATCC 25922 assessed as inhibition of bacterial growth at pH 7.4 incubated for 24 hrs by NCCLS protocol based method; format: functional
Staphylococcus aureus [24] = assay: Antibacterial activity against methicillin-resistant Staphylococcus aureus ATCC 43300 assessed as inhibition of bacterial growth at pH 6.5 incubated for 24 hrs by NCCLS protocol based method; format: functional
Cell membrane [25] = assay: Induction of outer membrane permeabilization in Pseudomonas aeruginosa ATCC 27853 assessed as increase in NPN uptake by NPN-dye based fluorescence analysis; format: subcellular; settings: dose 1-64 µM
Cell membrane [26] = assay: Induction of outer membrane permeabilization in Pseudomonas aeruginosa ATCC 27853 assessed as pH responsive ability by measuring fold increase in NPN uptake at 64 uM by NPN-dye based fluorescence analysis relative to control; format: subcellular
Salmonella typhimurium [27] = assay: Antibacterial activity against Salmonella typhimurium ATCC 14028 assessed as inhibition of bacterial growth at pH 6.5 incubated for 24 hrs by NCCLS protocol based method; format: functional, Salmonella enterica subsp. enterica serovar Typhimurium; settings: Salmonella enterica
Staphylococcus aureus [28] = assay: Antibacterial activity against Staphylococcus aureus ATCC 29213 assessed as inhibition of bacterial growth at pH 7.4 incubated for 24 hrs by NCCLS protocol based method; format: functional
Staphylococcus aureus [29] = assay: Antibacterial activity against methicillin-resistant Staphylococcus aureus ATCC 43300 assessed as inhibition of bacterial growth at pH 7.4 incubated for 24 hrs by NCCLS protocol based method; format: functional
Salmonella typhimurium [30] = assay: Antibacterial activity against Salmonella typhimurium ATCC 14028 assessed as inhibition of bacterial growth at pH 7.4 incubated for 24 hrs by NCCLS protocol based method; format: functional, Salmonella enterica subsp. enterica serovar Typhimurium; settings: Salmonella enterica
Staphylococcus aureus [31] = assay: Antibacterial activity against Staphylococcus aureus ATCC 25923 assessed as inhibition of bacterial growth at pH 7.4 incubated for 24 hrs by NCCLS protocol based method; format: functional

In the case of `CC[C@H](C)[C@H](NC(=O)CN)C(=O)NCC(=O)N[C@@H](C)C(=O)N[C@H](C(=O)N[C@@H](CC(C)C)C(=O)N[C@@H](CCCCN)C(=O)N[C@H](C(=O)N[C@@H](CC(C)C)C(=O)N[C@H](C(=O)N[C@H](C(=O)NCC(=O)N[C@@H](CC(C)C)C(=O)N1CCC[C@H]1C(=O)N[C@@H](C)C(=O)N[C@@H](CC(C)C)C(=O)N[C@H](C(=O)N[C@@H](CO)C(=O)N[C@@H](Cc1c[nH]c2ccccc12)C(=O)N[C@H](C(=O)N[C@@H](CCCCN)C(=O)N[C@@H](CCCNC(=N)N)C(=O)N[C@@H](CCCCN)C(=O)N[C@@H](CCCNC(=N)N)C(=O)N[C@@H](CCC(N)=O)C(=O)N[C@@H](CCC(N)=O)C(N)=O)[C@@H](C)CC)[C@@H](C)CC)[C@@H](C)O)[C@@H](C)O)C(C)C)C(C)C` [MELITTIN], the selectivity ratio [1] was 0.5, the MHC10 [2] was 2 µM and the IC50 at 24 h [3] was 1300 nM. The Activity (Pseudomonas aeruginosa [4]) was “inactive”, the Activity (Pseudomonas aeruginosa [5]) was “inactive” and the Activity (Pseudomonas aeruginosa [6]) was “inactive”. For the same molecule, the MHC10 [7] was 4 µM, the IC50 at 24 h [8] was 1940 nM and the Activity (Pseudomonas aeruginosa [9]) was “inactive”. For the same molecule, the Activity (Pseudomonas aeruginosa [10]) was “inactive”.
Work on H-FLFKLIPKVIKGLVKAIRK-NH2 yielded an MIC [11] of 2 µM, a selectivity ratio [1] of 0.13 and an MIC (Staphylococcus aureus [12]) of 2 µM. The Activity (Lipopolysaccharide (LPS) [13]) was “Active”, the MIC (Pseudomonas aeruginosa [14]) was 1 µM and the MHC10 [2] was 2 µM. The MIC [15] was 2 µM, the IC50 at 24 h [3] was 1910 nM and the MIC (Escherichia coli [16]) was 1 µM. The Activity (Cell membrane [17]) was “Tde”, the MIC (Staphylococcus aureus [18]) was 2 µM and the MHC10 [7] was 16 µM. The MIC (Pseudomonas aeruginosa [19]) was 4 µM, the Activity (Lipopolysaccharide (LPS) [20]) was “Active” and the MIC (Salmonella typhimurium [21]) was 4 µM. The IC50 at 24 h [8] was 2450 nM, the MIC (Salmonella typhimurium [22]) was 2 µM and the MIC (Escherichia coli [23]) was 2 µM. The MIC (Staphylococcus aureus [24]) was 2 µM, the Activity (Cell membrane [25]) was “Dose-Dependent Effect” and the Activity (Cell membrane [26]) was “inactive”. For the same molecule, the MIC (Salmonella typhimurium [27]) was 2 µM, the MIC (Staphylococcus aureus [28]) was 2 µM and the MIC (Staphylococcus aureus [29]) was 2 µM. It also gave an MIC (Salmonella typhimurium [30]) of 2 µM and an MIC (Staphylococcus aureus [31]) of 2 µM.
